Assay results as given in patent US20160318844A1, “PROSTACYCLIN COMPOUNDS, COMPOSITIONS AND METHODS OF USE THEREOF” (Insmed Incorporated, priority 2015, published 2016).
“Also recorded” adds a separate entry of the source. Where two headings read alike, the source gives them in different places. Blank lines part the entries; values can stand above or below the molecule they belong to.

Legend:
[1] = Particle size characterization of treprostinil compositions (QELS); assay type: physicochemical; conditions: compositions of Table 3, FIG. 2
Procedure: The compositions in Table 3 were subject to particle size characterization.
All particle size measurements were performed using a Wyatt Technology Mobius™ Zeta Potential/Particle Sizing Instrument in Quasi-elastic light scattering (QELS) mode. Composition aliquots were diluted 10-fold in pre-filtered (0.02 μm pore filter) ultrapure of deionized H2O. Light scattering data was collected and converted into particle size and size distribution using Dynamics® v. 7.2.4 instrument software. Reported average particle size diameter is based on the cumulants model, which mathematically fits particle diffusion constants (determined by the raw scattering intensities of particles in a suspension) to obtain the particle size mean and a distribution of particle sizes around the mean diameter.
Particle uniformity was determined using the software-calculated polydispersity (% PD). Polydispersity is defined as the standard deviation of the particle size distribution from the mean particle size value. % PD normalizes the polydispersity to the mean diameter by dividing by the mean size and multiplying by 100. […]
Dynamics@ polydispersity parameter represents a monodisperse population of particles if % PD ≦15. A calculated % PD ≧57% represents a polydisperse population of particles.

EP2 prostanoid receptor = target: T1, EP2 prostanoid receptor (Homo sapiens, UniProt P43116); test: GloSensor cAMP assay in CHO-K1 cells co-transfected with the EP2 receptor; assay type: cell-based; conditions: for change of potency with incubation time: cAMP dose response curves, 0.5 hr to 8 hr; for ranking of activity: kinetic profile at 10 μM and 5 μM
T1 construct: host or cells: CHO-K1
T1 sequence (P43116 whole entry): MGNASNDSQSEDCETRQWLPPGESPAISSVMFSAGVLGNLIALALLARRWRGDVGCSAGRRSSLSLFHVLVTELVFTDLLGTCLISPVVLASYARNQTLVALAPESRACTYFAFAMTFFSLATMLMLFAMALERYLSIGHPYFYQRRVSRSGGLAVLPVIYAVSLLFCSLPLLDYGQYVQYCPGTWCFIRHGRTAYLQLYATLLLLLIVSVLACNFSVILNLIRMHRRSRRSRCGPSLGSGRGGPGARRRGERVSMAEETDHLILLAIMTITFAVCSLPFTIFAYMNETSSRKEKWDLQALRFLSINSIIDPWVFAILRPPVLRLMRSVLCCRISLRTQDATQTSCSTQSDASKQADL
Source text: cAMP is a second messenger involved in signal transduction of G-protein coupled receptors (GPCRs) acting through Gα-s and Gα-i proteins. Because the treprostinil receptor is a GPCR, the assay provides an indication of whether the respective prostacyclin compound (or metabolite thereof) binds its receptor and activates the GPCR cell signaling cascade. The GloSensorTM assay harnesses a genetically modified form of firefly luciferase into which a cAMP-binding protein moiety has been inserted. Upon binding of cAMP, a conformational change is induced leading to increased light output. The EP2 prostanoid receptor was cotransfected with the GioSensorm plasmid (Promega) into CHO-K cells as follows. CHO-K cells were harvested when the monoloayer was at 50-90% confluence. First, cells were washed with 5 mL PBS. […] The media was aspirated, and the cell pellet was resuspended in 10 mL of growth media. Cell number was determined using a hemacytometer. […] For small scale transfections of up to 20 wells, the pGLoSensor-22F cAMP plasmid (Promega, Cat #: E2301) (2 apg): […] Cat #: […] P2271) ratio was diluted to a final concentration of 12.6 ng/μL (total plasmid) in Opti-MEM I reduced-serum medium (Life Technologies, Cat #: 1985062). Next, 6 μL of FuGENE HD transfection reagent (Promega, Cat #: E2311) was added to 160 μL of diluted plasmid and mixed carefully by gentle pipetting. The complex was incubated at room temperature for 0 to 10 minutes, and then 8 μL of the complex was added per well of a 96 well white assay plate (Costar, Cat #: 3917) and gently mixed without disturbing the cell monolayer. […] Following incubation, cells were treated and analyzed. For larger scale transfections, the aforementioned steps were scaled up accordingly, and cells were frozen following the last incubation. In order to prepare frozen transfected CHO-K cells, the media was aspirated from culture flasks and cells were rinsed with 5 mL PBS. […] Cell number was determined using a hemacytometer. The media was aspirated, and the cell pellet was resuspended in freezing media (Millipore, cat #: S-002-SF) at 2.5×10^4 cells/vial. Transfected cells were incubated overnight at -80° C. before transfer to liquid nitrogen for long term storage. […] SH30071.03)). […] In preparation for cAMP measurement, the cells were equilibrated with the GloSensor cAMP reagent prior to treatment. For equilibration, the medium was carefully removed from the individual well. Next, 100 μL of equilibration medium ([…] of Glosensor Reagent stock solution (Promega, Cat #: E291), 10% FBS (Hydone, Cat #: SH30071.03) and 88% CO2 independent medium (Life Technologies, Cat #: 18045088)) was added per well of the 96-well plate, and added to the side of each well. The plate was then incubated for 2 hours at room temperature. A first pre-read measurement was taken using a microplate reader (MicroLumat Plus). Plates were incubated for an additional 10 minutes at room temperature, followed by a second pre-read measurement. […] Following treatment, each plate was read every 5 minutes for the duration of the assay using a microplate reader (MicroLumat Plus). In order to determine the fold change in cAMP relative to the control, the transfection efficiency was first determined by dividing the second pre-read measurement by the average of the corresponding pre-read measurements. Next, the normalized relative light units (RLUs) of the samples were determined by dividing the plate read measurement by the transfection efficiency. The fold change in cAMP relative to the control was then determined by dividing the normalized RLU of the samples by the normalized RLU of the control. The cAMP assay was validated using free treprostinil. […] Luminescence was then measured at room temperature. […] Nebulizer Aeroneb Pro (Aerogen) was used to nebulize treprostinil derivative compositions. Desired volume of the formulation (usually 3 mL) was loaded to the mesh head of the nebulizer. […]

[2] = rat, in vivo
Procedure: Nebulized treprostinil (TRE) solution and treprostinil alkyl ester formulations were administered (at 15 nmol/kg, or […] TRE equivalent) to anaesthetised-ventilated rats (6-hour studies) or to conscious rats by nose-only inhalation (24-hour studies). Blood and lung samples were collected at specified time points. TRE and treprostinil alkyl ester concentrations in blood plasma and lung tissue were measured by HPLC/MS/MS analysis.
Male Sprague Dawley rats were placed in restraining tubes and exposed to nebulised drugs via the Jaeger-NYU Nose-Only Directed-Flow Inhalation Exposure System (CH Technologies, Westwood, N.J.) (FIG. 31). Test articles (6 mL at specific concentration) were nebulised using the Aeroneb nebuliser to deliver a predetermined estimated pulmonary dose. Blood and lung tissue samples were taken at selected times after nebulization of the drugs over a 24-hour period.

[3] = Tolerability and pharmacokinetics in rats, inhaled C16-TR (T748) for 14-consecutive days; assay type: in vivo, rat; conditions: inhaled 0.6-18 μg/kg, formulation T748
Procedure: Body weights were recorded daily and organ weights (lungs, heart, liver) were measured 24 hr. after the last drug dose.

guinea pigs = test: Cough reflex in guinea pigs; assay type: in vivo, guinea pig
Procedure: Aerosols were generated with an Ultra-Neb Pro nebulizer (nebulizer output 0.36 mL/min.) that was mixed with inspired air delivered at a rate of 2 L/min. The PBS or drugs were delivered for 10 min. and the number of coughs recorded during and for 20 min. after the delivery. Coughs were detected by visual observations, plethysmograph recordings and cough sounds.

[4] = Treprostinil pharmacokinetics in anaesthetised, ventilated rats after nebulized dosing; assay type: in vivo, rat
Procedure: Male Sprague Dawley rats were anaesthetised and prepared with endotracheal tube for ventilation. The right femoral vein was cannulated to facilitate blood collections. Terminal lung samples were taken for analysis only 6 hours after dosing. […] Systemic blood pressure (mSAP), heart rate (HR), and arterial oxygen saturation (Sa02). Physiologic parameters were measured during normoxia (fraction of inspired oxygen [FrO2]=0.21, SaO2≈90%) and for 2 to 3 hours during hypoxia (FrO2=0.10, SaO2≈50%).

beagle dogs = test: Clinical signs in dogs after inhalation
Procedure: (§1) Dosimetry was performed in propofol-anesthetized dogs in which nebulized drugs were introduced into a mixing chamber interposed on the inspiratory limb of a canine respirator. Technical trials were performed before each experiment to measure the concentration of drug (μg/L) delivered for each breath. The inhaled drug dose (μg/kg) was calculated using the formula: Inhaled Drug Dose (μg/kg)=Drug Conc. (μg/L)×Minute Ventilation (L/min.)×Time (min.)/Body Weight (kg). […] Clinical signs were monitored over this 72 hr. period.
(§2) Dosimetry was performed in propofol-anesthetized, artificially ventilated dogs in which nebulized drugs were introduced into a mixing chamber interposed on the inspiratory limb of the respirator. Technical trials were performed before each experiment measuring the concentration of drug (μg/L) per breath, minute ventilation and time required to achieve a targeted pulmonary dose. […] Clinical signs (cough, rapid shallow breathing, emesis and pale gums) were also monitored.

in vivo = conditions: dog
Procedure: Twelve beagle dogs of either sex were randomly assigned to different inhaled doses of treprostinil in PBS or the compound of Formula (A) wherein R2=
Formulations were nebulized with an Aeroneb nebulizer (MMAD: 2.5-4 μm) delivered into a 500 m1 expansion chamber. Formulations were nebulized for 2 min at ventilator settings of 90 ml/breath, 15 breaths/min (delivered volume=2.7 L) and collected on a filter. Drug amount (μg) on the filter was measured by HPLC to calculate the concentration of drug delivered through the ventilator circuit (μg/L).
as §1, §2

[5] = male, Sprague Dawley, rat, inhaled or intranasal, 6 ug/kg, plasma treprostinil, nebulized, estimated pulmonary dose of 6 μg/kg

polydispersity (% PD) [1]: around 15 % PD | change of potency with incubation time (EP2 prostanoid receptor): increases with incubation time | ranking of activity (EP2 prostanoid receptor): C12-TR>C14-TR>5-nonanyl-TR>C16-TR | immediately post dose (IPD) [2]: 0.0104 mg/kg
Molecule: CCCCCCCCCCCCCCOC(=O)COc1cccc2c1C[C@H]1C[C@@H](O)[C@H](CC[C@@H](O)CCCCC)[C@H]1C2 [Compound C14-TR, tetradecyl-treprostinil]

Molecule: CCCCCCCCCCCCCCCCOC(=O)COc1cccc2c1C[C@H]1C[C@@H](O)[C@H](CC[C@@H](O)CCCCC)[C@H]1C2 [Compound C16-TR, hexadecyl-treprostinil]
change of potency with incubation time (EP2 prostanoid receptor): increases with incubation time | ranking of activity (EP2 prostanoid receptor): C12-TR>C14-TR>5-nonanyl-TR>C16-TR | tolerability, body weights and organ weights [3]: no tolerability issues or significant changes (relative to PBS) in body weights and organ weights; also recorded: well tolerated

Molecule: CCCCC[C@H](O)CC[C@@H]1[C@H]2Cc3cccc(OCC(=O)O)c3C[C@H]2C[C@H]1O [Treprostinil, (1R,2R,3aS,9aS)-[[2,3,3a,4,9,9a-hexahydro-2-hydroxy-1-[(3S)-3-hydroxyoctyl]-1H-benz[f]inden-5-yl]oxy]acetic acid]
exposure concentration that consistently evokes cough (guinea pigs; aerosol 1-300 μg/ml): ≥ 30 µg/mL | cough bouts (guinea pigs; nebulized concentration of 30 μg/mL): 1-4 | guinea pigs with cough (guinea pigs; nebulized concentration of 30 μg/mL, 10 min. exposure): 7 of 7 | total number of coughs (guinea pigs; nebulized concentration of 30 μg/mL, average): 36±9 coughs | time by which measurable levels of TRE were no longer seen in the lungs [4]: < 6 h | time up to which measurable levels of TRE were seen in blood plasma [4]: ≤ 4 h | AUC(0-t) [4, 5]: 2.13 ng·h/mL | Cmax [4, 5]: 3.37 ng/mL | Tmax [4, 5]: 3 min | Cmax ([4]; male, Sprague Dawley, rat, inhaled, 6 ug/kg, plasma treprostinil, nebulized, estimated pulmonary dose of 6 μg/kg): 3.5 ng/mL | cAMP levels sustained for (EP2 prostanoid receptor; 10 μM, FIG. 3A): not exhibited | EC50 (EP2 prostanoid receptor; 4.5 hr incubation time, read-out: EC50 (μM) 4.5 hr): 0.2 µM | EC50 (EP2 prostanoid receptor; 6.0 hr incubation time, read-out: EC50 (μM) 6.0 hr): 0.29 µM | EC50 (EP2 prostanoid receptor; 8.0 hr incubation time, read-out: EC50 (μM) 8.0 hr): 0.44 µM | EC50 (EP2 prostanoid receptor; EC50 (μM) 0.5 hr, 0.5 hr incubation time): 0.18 µM | EC50 (EP2 prostanoid receptor; EC50 (μM) 1.0 hr, 1.0 hr incubation time): 0.28 µM | EC50 (EP2 prostanoid receptor; EC50 (μM) 2.0 hr, 2.0 hr incubation time): 0.15 µM | EC50 (EP2 prostanoid receptor; EC50 (μM) 3.0 hr, 3.0 hr incubation time): 0.16 µM | EC50 (EP2 prostanoid receptor; EC50 (μM) 4.0 hr, 4.0 hr incubation time): 0.19 µM | EC50 (EP2 prostanoid receptor; EC50 (μM) 5.0 hr, 5.0 hr incubation time): 0.26 µM | EC50 (EP2 prostanoid receptor; EC50 (μM) 7.0 hr, 7.0 hr incubation time): 0.46 µM | Max cAMP level (Fold) (EP2 prostanoid receptor; Table 4, compositions of FIGS. 3A-3C (10 μM, 1 μM, 0.1 μM), 8 hours time course): ~16 Fold | Max cAMP level (Fold) (EP2 prostanoid receptor; Table 5, 5 μM, FIG. 4, 8 hours time course): ~14 Fold | Max cAMP level (Fold) (EP2 prostanoid receptor; Table 6, effect of nebulization, head (5 μM), FIG. 6): ~15 Fold | change of potency with incubation time (EP2 prostanoid receptor): potency decreases with increasing incubation time | respiratory irritation (coughing, rapid shallow breathing) (beagle dogs; T623 inhaled doses as high as 46 μg/kg, treprostinil 5 and 16 μg/kg): present during the recovery period | adverse clinical signs (beagle dogs; targeted dose of 18 μg/kg): Adverse clinical signs were seen | Cmax (in vivo; beagle, 18 ug/kg): 5.9 ± 0.6 ng/mL | treprostinil plasma Cmax, fold higher than with T623 at similar inhaled doses (in vivo; both, beagle): 15-20 fold | Cmax (in vivo; both, beagle, inhaled or intranasal, 5 ug/kg): 2.7 ng/mL | Cmax (in vivo; both, beagle, inhaled or intranasal, 16 ug/kg): 5.9 ng/mL | period over which plasma levels of treprostinil were sustained (in vivo): disappeared within a few hours

polydispersity (% PD) [1]: around 15 % PD | cAMP levels compared with free treprostinil (EP2 prostanoid receptor; 10 μM, FIG. 3A): equivalent to free treprostinil | cAMP levels sustained for (EP2 prostanoid receptor; 10 μM, FIG. 3A): at least 6 hours | cAMP response levels (EP2 prostanoid receptor; unformulated compounds, 5 μM, FIG. 5): equivalent to free treprostinil
Molecule: treprostinil decyl ester [Compound C10-TR]
duration of cAMP levels (EP2 prostanoid receptor; 5 μM, FIG. 4 and FIG. 5): sustained significantly longer than free treprostinil | cAMP response compared with free treprostinil (EP2 prostanoid receptor; compositions, 5 μM, FIG. 4): greater than or equivalent to the response induced by free treprostinil
